PubChem BioAssay (NCI)
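A five-concentration, 48-hour dose response in 96-well plates underlies each endpoint, interpolated linearly between surrounding concentrations. GI50 marks 50% less growth. TGI denotes the concentration required for complete inhibition of growth.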

Key:
Experiment in all cases: inhibition of tumour cell growth, NCI panel, 48 h
[1] = system: SW-620 colon
[2] = system: MDA-MB-435
[3] = system: KM12 colon
[4] = system: MDA-MB-231 breast
[5] = system: HCC-2998 colon
[6] = system: SK-MEL-28 melanoma
[7] = system: SK-MEL-2 melanoma
[8] = system: UO-31 renal
[9] = system: BT-549 breast
[10] = system: NCI/ADR-RES ovarian
[11] = system: T-47D breast
[12] = system: K-562 leukemia
[13] = system: NCI-H226 lung
[14] = system: HOP-92 NSCLC
[15] = system: SF-295 CNS
[16] = system: SF-539 CNS
[17] = system: MOLT-4 leukemia
[18] = system: MALME-3M melanoma
[19] = system: NCI-H23 lung
[20] = system: HT29 colon
[21] = system: EKVX NSCLC
[22] = system: TK-10 renal
[23] = system: HL-60(TB) leukemia
[24] = system: NCI-H522 lung
[25] = system: U251 CNS
[26] = system: SK-OV-3 ovarian
[27] = system: OVCAR-8 ovarian
[28] = system: COLO 205 colon
[29] = system: HCT-15 colon
[30] = system: MCF7 breast
[31] = system: SR leukemia
[32] = system: A549 NSCLC
[33] = system: PC-3 prostate
[34] = system: SNB-75 CNS
[35] = system: OVCAR-5 ovarian
[36] = system: HOP-62 NSCLC
[37] = system: 786-0 renal
[38] = system: UACC-257 melanoma
[39] = system: OVCAR-3 ovarian
[40] = system: RPMI-8226 leukemia
[41] = system: DU-145 prostate
[42] = system: SK-MEL-5 melanoma
[43] = system: ACHN renal
[44] = system: M14 melanoma
[45] = system: SN12C renal
[46] = system: HS 578T breast
[47] = system: RXF 393 renal
[48] = system: HCT-116 colon
[49] = system: SF-268 CNS
[50] = system: NCI-H460 lung
[51] = system: CCRF-CEM leukemia
[52] = system: UACC-62 melanoma
[53] = system: SNB-19 CNS
[54] = system: IGROV1 ovarian
[55] = system: LOX IMVI melanoma

COc1cccc(-c2nc3sccn3c2-c2ccnc(NCCCNS(=O)(=O)c3cccc(F)c3)c2)c1
GI50 [1]: 3.16 µM
TGI [1]: > 100 µM
GI50 [2]: 2.29 µM
TGI [2]: 5.71 µM
GI50 [3]: 3.17 µM
TGI [3]: 27.3 µM
GI50 [4]: 3.62 µM
TGI [4]: > 100 µM
GI50 [5]: 5.12 µM
TGI [5]: > 100 µM
GI50 [6]: 2.96 µM
TGI [6]: 9.82 µM
GI50 [7]: 2.18 µM
TGI [7]: 5.44 µM
GI50 [8]: 1.25 µM
TGI [8]: 5.37 µM
GI50 [9]: 2.39 µM
TGI [9]: 7.05 µM
GI50 [10]: 2.09 µM
TGI [10]: 6.41 µM
GI50 [11]: 1.24 µM
TGI [11]: 4.93 µM
GI50 [12]: 1.77 µM
TGI [12]: > 100 µM
GI50 [13]: 2.38 µM
TGI [13]: 8.38 µM
GI50 [14]: 1.52 µM
TGI [14]: > 100 µM
GI50 [15]: 2.37 µM
TGI [15]: 7.48 µM
GI50 [16]: 3.87 µM
TGI [16]: > 100 µM
GI50 [17]: 1.84 µM
TGI [17]: 5.46 µM
GI50 [18]: 2.23 µM
TGI [18]: 7.24 µM
GI50 [19]: 2.12 µM
TGI [19]: 7.29 µM
GI50 [20]: 3.01 µM
TGI [20]: 23.9 µM
GI50 [21]: 2.99 µM
TGI [21]: > 100 µM
GI50 [22]: 3.8 µM
TGI [22]: 31.9 µM
GI50 [23]: 1.84 µM
TGI [23]: 4.91 µM
GI50 [24]: 2.11 µM
TGI [24]: 8.41 µM
GI50 [25]: 4.77 µM
TGI [25]: > 100 µM
GI50 [26]: 4.86 µM
TGI [26]: > 100 µM
GI50 [27]: 2.42 µM
TGI [27]: 18.9 µM
GI50 [28]: 2.22 µM
TGI [28]: 11.1 µM
GI50 [29]: 2.63 µM
TGI [29]: > 100 µM
GI50 [30]: 2.49 µM
TGI [30]: > 100 µM
GI50 [31]: 2.59 µM
TGI [31]: > 100 µM
GI50 [32]: 2.99 µM
TGI [32]: > 100 µM
GI50 [33]: 2.12 µM
TGI [33]: 11.6 µM
GI50 [34]: 1.73 µM
TGI [34]: 5.47 µM
GI50 [35]: 4.41 µM
TGI [35]: > 100 µM
GI50 [36]: 2.83 µM
TGI [36]: 29.1 µM
GI50 [37]: 4.49 µM
TGI [37]: > 100 µM
GI50 [38]: 2.89 µM
TGI [38]: 9.68 µM
GI50 [39]: 3.06 µM
TGI [39]: > 100 µM
GI50 [40]: 1.29 µM
TGI [40]: 4.56 µM
GI50 [41]: 3.04 µM
TGI [41]: > 100 µM
GI50 [42]: 1.56 µM
TGI [42]: 3.63 µM
GI50 [43]: 2.22 µM
TGI [43]: 10.6 µM
GI50 [44]: 2.35 µM
TGI [44]: 6.05 µM
GI50 [45]: 2.94 µM
TGI [45]: > 100 µM
GI50 [46]: 3 µM
TGI [46]: > 100 µM
GI50 [47]: 2.47 µM
TGI [47]: > 100 µM
GI50 [48]: 2.83 µM
TGI [48]: > 100 µM
GI50 [49]: 3.26 µM
TGI [49]: > 100 µM
GI50 [50]: 4.04 µM
TGI [50]: > 100 µM
GI50 [51]: 2.26 µM
TGI [51]: > 100 µM
GI50 [52]: 1.62 µM
TGI [52]: 5 µM
GI50 [53]: 5.6 µM
TGI [53]: > 100 µM
GI50 [54]: 2.39 µM
TGI [54]: 9.77 µM
GI50 [55]: 2.63 µM
TGI [55]: 14.8 µM
